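The compound was tested at five concentrations on cells cultured in 96-well plates, with a 48-hour exposure period. GI50 marks 50% less growth. TGI: total growth inhibition.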
Tests used:
Assay in all cases: NCI anticancer screen, dose series, 48 h
[1] = tested on: 786-0 renal
[2] = tested on: BT-549 breast
[3] = tested on: HCT-116 colon
[4] = tested on: HT29 colon
[5] = tested on: MALME-3M melanoma
[6] = tested on: PC-3 prostate
[7] = tested on: RPMI-8226 leukemia
[8] = tested on: SNB-19 CNS
[9] = tested on: SR leukemia
[10] = tested on: UACC-62 melanoma

Structure (SMILES) | TGI [1] [µM] | TGI [2] [µM] | TGI [3] [µM] | TGI [4] [µM] | TGI [5] [µM] | TGI [6] [µM] | TGI [7] [µM] | TGI [8] [µM] | TGI [9] [µM] | TGI [10] [µM] | GI50 [1] [µM] | GI50 [2] [µM] | GI50 [3] [µM] | GI50 [4] [µM] | GI50 [5] [µM] | GI50 [6] [µM] | GI50 [7] [µM] | GI50 [8] [µM] | GI50 [9] [µM] | GI50 [10] [µM]
Cc1cc(Oc2cnc(=O)[nH]c2)cs1 | > 100 | > 100 | > 100 | > 100 | > 100 | > 100 | > 100 | > 100 | > 100 | > 100 |  |  |  |  |  |  |  |  |  | 
O=C1NC(=O)C(c2ccc(Cl)cc2)=C1Nc1ccc(Cl)c(C(=O)O)c1 | > 25 | > 25 | > 25 | > 25 | > 25 | > 25 | > 25 | > 25 | > 25 | > 25 | > 25 | > 25 | > 25 | > 25 | > 25 | > 25 | > 25 | > 25 | > 25 | > 25
O=C1c2cc(-c3ccccc3)ccc2-c2c1c1ccc([N+](=O)[O-])cc1c(=O)n2CCCBr | > 50 | > 50 | > 50 | > 50 | > 43.4 | > 50 | > 50 | > 50 | > 15.1 | > 50 | > 31.7 | > 50 | > 50 | > 50 |  | > 50 | > 32.8 | > 36.8 |  | 49.4
COc1ccc2nc3cc([N+](=O)[O-])ccc3c(NCCCN(CCO)CCO)c2c1 | 21.1 | 12.8 | 9.54 | 5.21 | 5.3 | 20.1 | 8.9 | 18.6 | 14.3 | 11.6 | 4.09 | 5.58 | 2.36 | 2.03 | 2.21 |  | 2.28 | 5.68 | 1.97 | 3.34
CCN(CC)CCCC(C)Nc1c2ccc(Cl)cc2nc2cc(OC)c(OC)cc12 (configuration not stated) | 5.57 | 17.8 | 4.28 | 10.3 | 3.52 | 6.28 | 6.66 | 8.98 | 13.6 | 4.69 | 1.46 | 3.87 | 0.861 | 1.54 | 1.86 | 2.08 | 2.47 | 2.18 | 1.27 | 2.14
COc1ccc([I+]c2ccccc2)cc1 | > 100 | > 78.8 | > 100 | > 100 | > 100 | > 100 | > 78.1 | > 100 | > 100 | > 100 | 16.4 | 4.12 | 0.735 | 4.22 | 7.8 | 9.07 | 2.04 | 11.3 | 1.78 | 37.2
C[n+]1c2ccccc2c(Nc2ccc(NS(=O)(=O)CCCCN=C(N)N)cc2)c2ccc(N)cc21 | > 100 | > 100 | > 100 | 84.5 | 35.2 | > 100 | 23.3 | > 100 | > 26.3 | 22.4 | 3.8 | 35.2 | 1.49 | 1.02 | 4.06 | 8.47 | 1.43 | 0.444 | 0.138 | 0.917
O=C(O)c1ccc2c3c(ncnc13)-c1ccccc1C2=O | > 100 | > 29.9 | > 100 | > 28 | 1.58 | > 100 | > 88.7 | > 100 | > 100 | 6.11 | 37 | 2.51 | 27.2 | 3.45 | 0.517 | 43.3 | 51.3 | 3.52 | 35.7 | 2.44
